The results in this text go back to the supplement of paper PMC10702517.

± gives the standard deviation.

The series in a line: chemical recovery from spiked human plasma; higher = better extraction. The settings on record: pooled human plasma.
[1] abbreviates: extraction method: PES+SPE (3 d PDMS equilibration then HLB SPE).
The mark [2] stands for this setting: extraction method: SPE only (HLB 96-well).
The mark [3] stands for this setting: extraction method: solvent precipitation (ACN + hexane).
Where [4] appears, read: extraction method: SPE only (HLB 96-well), PES comparison experiment.

In the case of `CC1(C)C(C=C(Cl)Cl)C1C(=O)OCc1cccc(Oc2ccccc2)c1` (configuration not stated) [Permethrin], the chemical recovery is, setting by setting: under setting [1], 55 ± 9.7%; under setting [2], 2.59 ± 1%; under setting [3], 35.4 ± 3.1%.

As for `NCCc1ccccc1` [Phenethylamine], the chemical recovery under setting [2] came to 6.63 ± 4.2% and the chemical recovery under setting [3] stood at 47.1 ± 1.7%.

As for `c1ccc2c(c1)Nc1ccccc1S2` [Phenothiazine], the chemical recovery under setting [3] worked out at 41.2 ± 4.4%.

`CCC(C(N)=O)(C(N)=O)c1ccccc1` [Phenylethylmalonamide]: the chemical recovery was 43.1 ± 4.2% under setting [1], 37.2 ± 2.4% under setting [2] and 60.3 ± 8.1% under setting [4].

Take `NNc1ccccc1` [Phenylhydrazine]: the chemical recovery under setting [3] is 40.7 ± 8.9%.

Take `O=P(O)(O)Oc1ccccc1` [Phenylphosphate]: under setting [1], the chemical recovery stood at 0.213 ± 0.049%.

Consider `CCOP(=S)(OCC)SCSCC` [Phorate], for which the chemical recovery is 0.327 ± 0.035% under setting [1], 10.2 ± 3.3% under setting [2] and 37.8 ± 3.6% under setting [3].

Consider `N#Cc1ccccc1C#N` [Phthalonitrile], for which, under setting [2], the chemical recovery was found to be 8.49 ± 8.2%.

For the molecule `Nc1c(Cl)c(Cl)nc(C(=O)O)c1Cl` [Picloram], the chemical recovery worked out at 29.5 ± 5.1% under setting [1], 34.9 ± 2.7% under setting [2] and 63.3 ± 3.8% under setting [3].

Take `CC(C)NCC(O)COc1cccc2[nH]ccc12` (configuration not stated) [Pindolol]: the chemical recovery was 42.3 ± 1.6% under setting [1] and 76 ± 2.5% under setting [3].

Turning to `CCc1cc(C)cc(CC)c1-c1c(OC(=O)C(C)(C)C)n2n(c1=O)CCOCC2` [Pinoxaden], the chemical recovery amounted to 0.0892 ± 0.042% under setting [1] and 21.1 ± 3.2% under setting [2].

`NC(=O)C1(N2CCCCC2)CCN(CCCC(=O)c2ccc(F)cc2)CC1` [Pipamperone]: the chemical recovery was 4.98 ± 1.1% under setting [1], 28.3 ± 3.7% under setting [2] and 71.4 ± 4.4% under setting [3].

Consider `CC[C@H](C)C(=O)O[C@H]1C[C@H](O)C=C2C=C[C@H](C)[C@H](CC[C@@H](O)C[C@@H](O)CC(=O)O)[C@H]21` [Pravastatin], for which the chemical recovery under setting [1] turned out to be 31.6 ± 3.5%, the chemical recovery under setting [2] is 28.1 ± 2.9%, the chemical recovery under setting [4] was found to be 58.6 ± 5.1% and the chemical recovery under setting [3] amounted to 67 ± 6.7%.

For `CC(C)C[C@H](CN)CC(=O)O` [Pregabalin], the chemical recovery reads like this: under setting [2], 8.64 ± 5.9%; under setting [3], 66 ± 7.2%.

Regarding `CCC1(c2ccccc2)C(=O)NCNC1=O` [Primidone], the chemical recovery reads like this: under setting [1], 41.5 ± 2.6%; under setting [2], 36.6 ± 3.8%; under setting [4], 41.9 ± 4.5%; under setting [3], 76.5 ± 3.6%.

As to `CCCN(CCOc1c(Cl)cc(Cl)cc1Cl)C(=O)NC=O` [Prochloraz BTS445-96], under setting [3], the chemical recovery was determined as 71.33 ± 0.59%.

Consider `CC12CC1(C)C(=O)N(c1cc(Cl)cc(Cl)c1)C2=O` (configuration not stated) [Procymidone], for which the chemical recovery under setting [2] was 18.9 ± 2.2%.

`CCCSP(=O)(OCC)Oc1ccc(Br)cc1Cl` (configuration not stated) [Profenofos] came in with a chemical recovery under setting [2] of 39.9 ± 5.7%.

Consider `CCCOC(=O)NCCCN(C)C` [Propamocarb], for which the chemical recovery under setting [2] was 6.68 ± 4.3% and the chemical recovery under setting [3] was 54.9 ± 3.7%.

For the molecule `C#CCOS(=O)OC1CCCCC1Oc1ccc(C(C)(C)C)cc1` (configuration not stated) [Propargite], the chemical recovery under setting [2] was 42.4 ± 10%.

As for `CNC(=O)Oc1ccccc1OC(C)C` [Propoxur], the chemical recovery is, setting by setting: under setting [1], 33.3 ± 8.7%; under setting [2], 37.5 ± 0.59%; under setting [3], 46.7 ± 3.7%.

Take `CCCN(CCC)C(=O)SCc1ccccc1` [Prosulfocarb]: the chemical recovery is, setting by setting: under setting [2], 33.6 ± 4.5%; under setting [4], 35.1 ± 6%; under setting [3], 72.6 ± 6.4%.

On to `CC1=NNC(=O)N(/N=C/c2cccnc2)C1` [Pymetrozine], for which the chemical recovery under setting [2] is 13.5 ± 3.4% and the chemical recovery under setting [3] was 75.4 ± 2.9%.

As for `Cc1cc(C)nc(Nc2ccccc2)n1` [Pyrimethanil], the chemical recovery runs as follows: under setting [1], 51.1 ± 7.5%; under setting [2], 31.2 ± 2.5%; under setting [3], 61.9 ± 3%.

Regarding `[O-][n+]1cccc2ccccc21` [Quinoline N-oxide], the chemical recovery runs as follows: under setting [1], 42.6 ± 6%; under setting [2], 43.8 ± 0.64%; under setting [3], 76.1 ± 3.2%.

As for `CC(Oc1ccc(Oc2cnc3cc(Cl)ccc3n2)cc1)C(=O)O` (configuration not stated) [Quizalofop], the chemical recovery is, setting by setting: under setting [1], 43.1 ± 5.6%; under setting [2], 28.1 ± 1.3%; under setting [3], 67.8 ± 5.7%.

Consider `CNC(=C[N+](=O)[O-])NCCSCc1ccc(CN(C)C)o1` [Ranitidine], for which the chemical recovery under setting [3] worked out at 65.6 ± 6.1%.

Under setting [2], `O=C1NS(=O)(=O)c2ccccc21` [Saccharin] registered a chemical recovery of 38.6 ± 7.1%.

With `CC[C@@H](C(=O)[C@@H](C)[C@@H](O)[C@H](C)[C@@H]1O[C@@H]([C@@H](CC)C(=O)O)CC[C@@H]1C)[C@H]1O[C@]2(C=C[C@@H](O)[C@]3(CC[C@@](C)([C@H]4CC[C@](O)(CC)[C@H](C)O4)O3)O2)[C@H](C)C[C@@H]1C` [Salinomycin], the chemical recovery reads like this: under setting [2], 26.7 ± 6.9%; under setting [3], 51.9 ± 13%.

Turning to `CCCC[N+]1(C)[C@H]2CC(OC(=O)C(CO)c3ccccc3)C[C@H]1[C@H]1O[C@H]12` (some centres not stated) [Scopolamine-N-butyl], the chemical recovery reads like this: under setting [1], 42.2 ± 2.6%; under setting [2], 38.4 ± 3.4%; under setting [4], 44.2 ± 6.1%; under setting [3], 65.8 ± 3.2%.

In turn, `O=C(O)CCCCCCCCC(=O)O` [Sebacic-acid] gave a chemical recovery under setting [1] of 54.6 ± 13% and a chemical recovery under setting [2] of 48.9 ± 13%.

For `C=CCC1(C(C)CCC)C(=O)NC(=O)NC1=O` (configuration not stated) [Secobarbital], the chemical recovery reads like this: under setting [1], 53.8 ± 5%; under setting [2], 36.7 ± 1.2%; under setting [4], 61.1 ± 8.4%; under setting [3], 72.8 ± 5.8%.
